These are literature values, as cited in PubChem BioAssay AID1259409 (Chemical Carcinogenesis Research Information System (CCRIS), 2018).

Where “and” joins values, the source holds several entries; their conditions need not be identical. Equal entries are not always repeated.

The subject of the data set is rodent chemically induced tumor inhibition, incidence and multiplicity. In words: CCRIS tumor inhibitor studies. To be noted: Route [Inhibitor]: ORAL, Promoter: NONE USED.

Regarding `C/C1=C\C=C(\C(C)C)[C@@H](O)C/C(C)=C/CC/C(C)=C/CC1`, the “tumour outcome (control, treated, inhibition, significance)” value is reported as 22/26 (85%), 15/26 (58%), 32%, p<0.01-p<0.05 (Carcinogen: N-METHYL-N-NITROSOUREA, 684-93-5, Dose [Inhibitor]: 0.01% IN DIET BEGINNING 1 WK POST LAST CARCINOGEN DOSE (STUDY DURATION: 26 WK), Species: RAT, Strain/Sex: CD-FISCHER/FEMALE, Target Tissue: Type of Lesion: LARGE INTESTINE: TUMOR, Dose [Carcinogen]: 2 MG IN WATER 3/WK FOR 3 WK); 22/26 (85%), 13/26 (50%), 41%, p<0.01-p<0.05 (Carcinogen: N-METHYL-N-NITROSOUREA, 684-93-5, Dose [Inhibitor]: 0.01% IN DIET BEGINNING WEEK 1 AND CONTINUING FOR DURATION OF STUDY (STUDY DURATION: 26 WK), Species: RAT, Strain/Sex: CD-FISCHER/FEMALE, Target Tissue: Type of Lesion: LARGE INTESTINE: TUMOR, Dose [Carcinogen]: 2 MG IN WATER 3/WK FOR WEEKS 1-3); 11/22 (50%), 4/20 (20%), 60%, p<0.05 (Carcinogen: N-NITROSOBIS(2-HYDROXYPROPYL)AMINE, 53609-64-6, Dose [Inhibitor]: 0, 0.01% IN DIET FOR 27 WK (STUDY DURATION: 27 WK), Species: HAMSTER, Strain/Sex: SYRIAN/FEMALE, Target Tissue: Type of Lesion: PANCREAS: TUMOR, Dose [Carcinogen]: 500 MG/KG IN OLIVE OIL 1/WK FOR 27 WK).

As for `N#CO`, the “tumour outcome (control, treated, inhibition, significance)” value reads like this: (Carcinogen: 1,2-DIMETHYLHYDRAZINE, 540-73-8, Dose [Inhibitor]: 0.013 MMOL/G IN DIET BEGINNING 1 WK POST LAST CARCINOGEN DOSE (STUDY DURATION: 42 WK), Species: MOUSE, Strain/Sex: CF-1/FEMALE, Target Tissue: Type of Lesion: LARGE BOWEL: ADENOCARCINOMA, Dose [Carcinogen]: 0.6 MG IN 0.2 ML EDTA SOLUTION (PH 6.5) 2X WK FOR 8 WKS.) 20%, 0%, 100%, p<0.05; (Carcinogen: 1,2-DIMETHYLHYDRAZINE, 540-73-8, Dose [Inhibitor]: 0.013 MMOL/G IN DIET BEGINNING 1 WK POST LAST CARCINOGEN DOSE (STUDY DURATION: 42 WK), Species: MOUSE, Strain/Sex: CF-1/FEMALE, Target Tissue: Type of Lesion: LARGE BOWEL: ADENOMA, Dose [Carcinogen]: 0.6 MG IN 0.2 ML EDTA SOLUTION (PH 6.5) 2/WK FOR 8 WK) 41%, 18%, 56%, not significant; (Carcinogen: 1,2-DIMETHYLHYDRAZINE, 540-73-8, Dose [Inhibitor]: 0.026 MMOL/G IN DIET BEGINNING 1 WK POSE LAST CARCINOGEN DOSE (STUDY DURATION: 42 WK), Species: MOUSE, Strain/Sex: CF-1/FEMALE, Target Tissue: Type of Lesion: LARGE BOWEL: ADENOMA, Dose [Carcinogen]: 0.6 MG IN 0.2 ML EDTA SOLUTION (PH 6.5) 2/WK FOR 8 WK) 41%, 17%, 58%, not significant; (Carcinogen: 1,2-DIMETHYLHYDRAZINE, 540-73-8, Dose [Inhibitor]: 0.026 MMOL/G IN DIET BEGINNING 1 WK POST LAST CARCINOGEN DOSE (STUDY DURATION: 42 WK), Species: MOUSE, Strain/Sex: CF-1/FEMALE, Target Tissue: Type of Lesion: LARGE BOWEL: ADENOCARCINOMA, Dose [Carcinogen]: 0.6 MG IN 0.2 ML EDTA SOLUTION (PH 6.5) 2/WK FOR 8 WK) 15%, 6%, 60%, not significant and 20%, 6%, 70%, not significant and 18%, 6%, 67%, not significant; (Carcinogen: 1,2-DIMETHYLHYDRAZINE, 540-73-8, Dose [Inhibitor]: 0.026 MMOL/G IN DIET BEGINNING 1 WK POST LAST CARCINOGEN DOSE (STUDY DURATION: 42 WK), Species: MOUSE, Strain/Sex: CF-1/FEMALE, Target Tissue: Type of Lesion: LARGE BOWEL: ADENOMA, Dose [Carcinogen]: 0.6 MG IN 0.2 ML EDTA SOLUTION (PH 6.5) 2/WK FOR 8 WK) 33%, 11%, 67%, not significant and 37%, 14%, 62%, p<0.05; (Carcinogen: 7,12-DIMETHYLBENZ(A)ANTHRACENE, 57-97-6, Dose [Inhibitor]: 0.013 MMOL/G IN DIET BEGINNING 1 WK AFTER CARCINOGEN ADMINISTRATION (STUDY DURATION: 18 WK), Species: RAT, Strain/Sex: SPRAGUE-DAWLEY/FEMALE, Target Tissue: Type of Lesion: MAMMARY GLAND: TUMOR, Dose [Carcinogen]: 12 MG DMBA IN 1.0 ML OLIVE OIL ONCE) 100%, 77%, 23%, p<0.01. For the same compound, the “tumour outcome (control, treated, inhibition, significance)” value by setting is: (Carcinogen: 7,12-DIMETHYLBENZ(A)ANTHRACENE, 57-97-6, Dose [Inhibitor]: 0.026 MMOL/G IN DIET BEGINNING 1 WK AFTER CARCINOGEN ADMINISTRATION (STUDY DURATION: 16 WK), Species: RAT, Strain/Sex: SPRAGUE-DAWLEY/FEMALE, Target Tissue: Type of Lesion: MAMMARY GLAND: TUMOR, Dose [Carcinogen]: 12 MG DMBA IN 1.0 ML OLIVE OIL ONCE) 100%, 60%, 40%, p<0.001; (Carcinogen: 7,12-DIMETHYLBENZ(A)ANTHRACENE, 57-97-6, Dose [Inhibitor]: 0.026 MMOL/G IN DIET BEGINNING 1 WK AFTER CARCINOGEN ADMINISTRATION (STUDY DURATION: 18 WK), Species: RAT, Strain/Sex: SPRAGUE-DAWLEY/FEMALE, Target Tissue: Type of Lesion: MAMMARY GLAND: TUMOR, Dose [Carcinogen]: 12 MG DMBA IN 1.0 ML OLIVE OIL ONCE) 94%, 63%, 33%, p<0.05 and 100%, 63%, 37%, p<0.01.

For `CCCCCCC[Se]C#N`, the “tumour outcome (control, treated, inhibition, significance)” value (Carcinogen: 7,12-DIMETHYLBENZ[A]ANTHRACENE, 57-97-6, Dose [Inhibitor]: 0.1, 2 PPM (SELENIUM) IN DIET FOR 3 WK BEGINNING 2 WK PRIOR TO CARCINOGEN DOSE (STUDY DURATION: 25 WK), Species: RAT, Strain/Sex: SPRAGUE-DAWLEY/FEMALE, Target Tissue: Type of Lesion: MAMMARY GLAND: TUMOR, Dose [Carcinogen]: 10 MG ONCE) is reported as 25/30 (83%), 11/30 (37%), 55%, p<0.05.
